Several values for one entry are separate records, joined by “and”; a condition that tells them apart may be missing. Identical values can stand only once. Where a SMILES comes first, the peptide text is derived from it.
What was measured:
[1] = Fluorescence distribution of labeled peptides in retinal cross-sections; type: in vivo, C57BL/6J mice; conditions: Alexa Fluor 488-labeled peptide, eye drops, retinal cross-sections 1 h post-administration
Source text: Fig. 1 Penetration and bioavailability of PEDF Peptides 17-mer, H105A, and R99A Delivered via Eye Drops in Mouse Retinas. a Peptide mapping and sequence. Tertiary structure of human PEDF highlighting the small peptide region with neurotrophic activity (17-mer) in blue (top). Primary structure of human PEDF showing the location of the 17-mer region (middle). Sequences of the 17-mer peptide and its variants, H105A and R99A (bottom). b In vivo detection of peptides. Fundus micrographs showing fluorescence from Alexa Fluor 488-labeled 17-mer, H105A, and R99A peptides in the eyes of C57BL/6J mice at P21 days after eye drop administration of 5 µl of peptide at 1 mg/ml (left). Fundus images were taken at 1, 3-, 6-, 24-, and 48 h post-administration. Quantification of fluorescence intensity over time post-administration (right). […] The amount of peptide was quantified from the fluorescence in retinal extracts using standard curves (Supplementary Fig. 1a). Each data point represents the amount of each peptide per eye with three eyes (n = 3) per time point. d Retinal cross-sections showing fluorescence distribution in the photoreceptor layer 1 h after applying eye drops as in Panel B. Representative images for labeled 17-mer, H105A, and R99A peptides are shown, with magnified areas of 17-mer and H105A indicated by dotted rectangles. […]

[2] = tested on: human iPSC-derived retinal organoids exposed to CSE; assay: TUNEL staining of retinal organoid sections; type: cell-based; conditions: Figure 8f, individual values, n=5
Protocol: Human iPSCs were differentiated into retinal organoids (ROs) following the protocol by Zhong et al.[41]. Briefly, on Day 0, hiPSC colonies were dissociated with dispase and grown in a suspension to form embryoid bodies, and slowly transitioned to neural induction media (DMEM/F12 (1:1), 1% N2 supplement (Invitrogen), 1 x minimum essential media-nonessential amino acids (NEAAs), 2 µg/ml heparin (Sigma)). On Day 7, EBs were seeded on Matrigel coated plates and maintained in neural induction media. On Day 16, the media was switched to the retinal differentiation medium (DMEM/F12 (3:1), 2% B27 (without vitamin A, Invitrogen), 1x NEAA and 1% antibiotic–antimycotic (Gibco)). Retinal domains were identified and lifted manually with tungsten needles between Day 21 and Day 26 under a phase contrast microscope. On day 30, the culture medium was transitioned to DMEM/F12 (3:1) with 2% B27, 1x NEAA, 1% antibiotic–antimycotic, 10% fetal bovine serum (FBS; Gibco), […] Taurine (Sigma), and 2 mM GlutaMAX (Invitrogen). Additionally, 1 µM retinoic acid supplement was introduced daily starting from day 63. On day 91, the medium was modified to DMEM/F12 (1:1) supplemented with 1% N2, 1 x NEAAs, 1% antibiotic–antimycotic, 10% FBS, […] Taurine and 2 mM GlutaMAX, and the concentration of retinoic acid supplementation was reduced to 0.5 µM for the remainder of the culture period. The use of hiPSCs in this study conforms to the University of Colorado Institutional Biosafety Committee standards. […]
D180 ROs were treated with each of the 5 experimental conditions, as described above (n = 5 for each condition), washed with PBS three times, and fixed with 4% paraformaldehyde for 10 min at room temperature. […] Fluorescence images were acquired with a Nikon C2 Confocal Microscope A1 (Minato City, Tokyo, Japan) and stitched together using Nikon Elements Software. Images were analysed with Fiji. The relative area of positive immunostaining was calculated as a percentage of total retinal area. […]

SMILES	distribution of labeled peptide in photoreceptor layer [1]	Relative TUNEL(+) area ([2]; CSE + peptide 1nM)	Relative TUNEL(+) area ([2]; CSE + peptide 20nM)
CC[C@H](C)[C@H](NC(=O)[C@H](CC(C)C)NC(=O)[C@H](CC(=O)O)NC(=O)[C@H](Cc1ccc(O)cc1)NC(=O)[C@H](Cc1ccc(O)cc1)NC(=O)[C@H](CC(C)C)NC(=O)[C@H](C)NC(=O)[C@H](CCCNC(=N)N)NC(=O)[C@H](Cc1c[nH]cn1)NC(=O)[C@@H](NC(=O)[C@@H](NC(=O)[C@H](CO)NC(=O)[C@H](CCC(=O)O)NC(=O)[C@@H](NC(=O)[C@H](CCCNC(=N)N)NC(=O)[C@@H](N)CCC(N)=O)[C@@H](C)O)[C@@H](C)CC)[C@@H](C)CC)C(=O)N[C@@H](CO)C(=O)O [17-mer] (H-QRTESIIHRALYYDLIS-OH)	decorated the OS in a punctuated fashion		
CC[C@H](C)[C@H](NC(=O)[C@H](CC(C)C)NC(=O)[C@H](CC(=O)O)NC(=O)[C@H](Cc1ccc(O)cc1)NC(=O)[C@H](Cc1ccc(O)cc1)NC(=O)[C@H](CC(C)C)NC(=O)[C@H](C)NC(=O)[C@H](CCCNC(=N)N)NC(=O)[C@H](C)NC(=O)[C@@H](NC(=O)[C@@H](NC(=O)[C@H](CO)NC(=O)[C@H](CCC(=O)O)NC(=O)[C@@H](NC(=O)[C@H](CCCNC(=N)N)NC(=O)[C@@H](N)CCC(N)=O)[C@@H](C)O)[C@@H](C)CC)[C@@H](C)CC)C(=O)N[C@@H](CO)C(=O)O [H150A] (H-QRTESIIARALYYDLIS-OH)		2.16 and 2.78 and 3.68 and 2.70 and 2.54	1.75 and 2.66 and 2.53 and 2.94 and 1.87

Source: article PMC11928584, “H105A peptide eye drops promote photoreceptor survival in murine and human models of retinal degeneration” (Communications Medicine, 2025)
